Data from PMC9865752, “Design and Synthesis of (Z)-2-(Benzylamino)-5-benzylidenethiazol-4(5H)-one Derivatives as Tyrosinase Inhibitors and Their Anti-Melanogenic and Antioxidant Effects” (Molecules, 2023).
Read-outs that look alike come from different tables or passages of the source.

Assays:
[1] = Peroxynitrite scavenging assay; conditions: 20 µM; SIN-1 as generator; DHR123 probe
Description: The effects of the BABT derivatives on peroxynitrite scavenging activities were also examined using SIN-1 as an RNS generator and dihydrorhodamine (DHR123) as an ROS indicator. DHR123 was converted to fluorescent rhodamine 123 by peroxynitrite generated by SIN-1. Therefore, the peroxynitrite scavenging activities of 1–14 were assessed by measuring the fluorescence of rhodamine 123. BABT derivatives and penicillamine, the positive control, were used at a concentration of 20 µM.
The peroxynitrite scavenging activities of the BABT derivatives were assessed using the method developed by Kooy, involving the monitoring of highly fluorescent rhodamine 123, which was rapidly produced from non-fluorescent DHR123 in the presence of peroxynitrite. Rhodamine buffer (pH 7.4) was composed of 50 mM sodium phosphate dibasic, 50 mM sodium phosphate monobasic, 90 mM sodium chloride, 5 mM potassium chloride, and 100 µM DTPA. A 10 µL aliquot of BABT derivatives or PCA (final concentration: 20 µM) was seeded in a black 96-well plate. Then, 10 µL of SIN-1 (10 µM) was added to induce radical species generation and mixed with 180 µL of rhodamine buffer. Fluorescence intensity was measured at emission and excitation wavelengths of 535 and 485 nm, respectively, using a fluorescence microplate reader (Berthold Technologies GmbH & Co.). PCA was used as the positive control.

[2] = test system: mushroom tyrosinase; assay: Mushroom tyrosinase inhibition assay; format: biochemical; conditions: for IC50: mean ± SEM of three experiments
Description: As mushroom tyrosinase is commercially available and relatively cheap, it is used as a tool for the identification of novel tyrosinase inhibitors. Here, we examined the tyrosinase inhibitory activities of the 14 BABT derivatives against mushroom tyrosinase in the presence of L-tyrosine or L-dopa as substrates.
Mushroom tyrosinase inhibitory activities of BABT derivatives were determined as described previously, with minor modifications. L-Tyrosine and L-dopa were used as substrates to evaluate the enzyme activity. […] Assay mixtures were incubated at 37 °C for 30 min, and dopachrome amounts synthesized were determined by measuring the optical density of each well at 475 nm using a microplate reader (VersaMax; Molecular Devices, Sunnyvale, CA, USA).

[3] = SIN-1-induced ROS scavenging assay; conditions: 20 µM; SIN-1 as ROS generator; DCFH-DA probe
Text: The scavenging activities of the BABT derivatives 1–14 against ROS and peroxynitrite (ONOO^−) were investigated because the antioxidant activities of the compounds may modulate melanogenesis. To measure the ROS scavenging activities of BABT derivatives, 2′,7′-dichlorodihydrofluorescein diacetate (DCFH-DA) and 3-morpholinosydnonimine (SIN-1) were used as a fluorogenic probe and ROS generator, respectively. The reaction of DCFH-DA with esterase produces 2′,7′-dichlorodihydrofluorescein (DCFH), which generates the fluorescent compound 2′,7′-dichlorofluorescein (DCF) by reacting with ROS produced by SIN-1. Therefore, ROS scavenging activities were determined by measuring the DCF fluorescence remaining after the BABT derivatives scavenged the ROS generated by SIN-1. […] BABT derivatives and Trolox, the positive control, were used at a concentration of 20 µM.
The ROS scavenging activities of the BABT derivatives were measured using an oxidant-sensitive fluorescent probe. Derivatives or Trolox (10 µL; final concentration: 20 µM) were seeded in a black 96-well plate. Then, 10 µL of SIN-1 (10 µM) was added to induce radical species generation and mixed with 180 µL of sodium phosphate buffer (pH 7.4) containing 12.5 µM DCF-DA and 600 units of esterase. Fluorescence intensity was measured at emission and excitation wavelengths of 535 and 485 nm, respectively, using a fluorescence microplate reader (Berthold Technologies GmbH & Co., Wien, Austria). Trolox was used as the positive control.

[4] = DPPH radical scavenging assay; conditions: test samples 500 µM; DPPH 0.18 mM; 30 min in the dark
Description: DPPH is a light-sensitive compound containing free radicals. The DPPH assay is one of the most common methods for evaluating the antioxidant activity of a compound. The effects of BABT derivatives on DPPH radical scavenging activities were evaluated using L-ascorbic acid as a positive reference control. DPPH radical scavenging activities were measured after leaving the mixed samples (test samples of 500 µM plus DPPH solution of 0.18 mM) in the dark for 30 min. To determine the radical scavenging activities, the absorbance of the mixed samples was measured at 517 nm.
According to previously described methods, with minor modifications, the DPPH radical scavenging activities of BABT derivatives 1–14 were measured. A DPPH (0.2 mM) and methanol solution (180 µL) was mixed with 20 µL of a DMSO solution containing 5 mM BABT derivative, or with 20 µL of an aqueous solution of 5 mM L-ascorbic acid, in each well of a 96-well plate and kept at ambient temperature in the dark for 30 min. The optical density of each well was measured at 517 nm using a microplate reader (VersaMax; Molecular Devices). L-Ascorbic acid was used as a positive reference control, and the DPPH radical scavenging abilities of BABT derivatives were compared with those of L-ascorbic acid. All experiments were performed independently, thrice.

[5] = test system: B16F10 cells; assay: Measurement of extracellular and intracellular melanin levels; format: cell-based, murine; conditions: 20 µM; α-MSH plus IBMX stimulated B16F10 cells; 72 h
Description: To investigate the effects of derivative 8 on extracellular and intracellular melanin levels in B16F10 cells, the cells were treated with various concentrations (5, 10, and 20 µM) of derivative 8 for 1 h, in addition to co-treatment with α-MSH (0.5 µM) and 3-isobutyl-1-methylxanthine (IBMX; 200 µM) to enhance melanin biosynthesis in B16F10 cells. After 72 h of incubation, the effects of 8 on extracellular and intracellular melanin levels were determined by measuring the melanin absorbance in the culture media and cell lysates, respectively, at 405 nm using a microplate reader.
The effect of 8 on melanin production was measured using a standard melanin content assay, with minor modifications. Briefly, B16F10 cells were seeded at a density of 1 × 10^5 cells per well and allowed to adhere to the well bottoms for 24 h under the conditions used for cell cultures. […] After incubation for 72 h at 37 °C in a 5% CO2 atmosphere, melanin levels were determined. To measure the extracellular melanin levels, the absorbance of each well of the culture medium was measured at 405 nm. […] Cultured cells were washed twice with PBS, and the pellets obtained were dissolved using 1 N NaOH solution (200 µL, 10% DMSO) at 60 °C for 1 h. Cell lysates were transferred to the wells of a 96-well plate, and the optical density of melanin dissolved in each well was measured at 405 nm in aqueous DMSO solution using a microplate reader (VersaMax; Molecular Devices).

[6] = substrate L-dopa, read-out: IC50 (µM) L-Dopa
[7] = substrate L-tyrosine, read-out: IC50 (µM) L-Tyrosine

| Structure (SMILES) | IC50 [2, 6] [µM] | IC50 [2, 7] [µM] | ROS scavenging activity (in words) [3] | further results |
| --- | --- | --- | --- | --- |
| O=C1N=C(NCc2ccccc2)S/C1=C\c1ccc(O)cc1 [Compound 1, (Z)-2-(benzylamino)-5-(4-hydroxybenzylidene)thiazol-4(5H)-one] | 65.1 ± 8.29 | 27.5 ± 2.93 | strongly reduced the ROS levels enhanced by SIN-1 | peroxynitrite scavenging activity (in words) [1]: strong ROS and peroxynitrite scavenging activities; fold higher IC50 value with L-dopa than with L-tyrosine ([2]; L-dopa versus L-tyrosine as substrate): 2 fold |
| COc1ccc(/C=C2\SC(NCc3ccccc3)=NC2=O)cc1 [Compound 2, (Z)-2-(benzylamino)-5-(4-methoxybenzylidene)thiazol-4(5H)-one] | 239.4 ± 2.38 | 126 ± 10 | strongly reduced the ROS levels enhanced by SIN-1 | fold decrease of tyrosinase inhibitory activity versus derivative 1 ([2]; substrate L-dopa): 3.7 fold; fold lower tyrosinase inhibitory activity than derivative 1 ([2]; substrate L-tyrosine): 4.6 fold |
| O=C1N=C(NCc2ccccc2)S/C1=C\c1ccc(F)cc1F [Compound 3, (Z)-2-(benzylamino)-5-(2,4-difluorobenzylidene)thiazol-4(5H)-one] | > 300 | > 300 | moderate ROS scavenging activities | – |
| O=C1N=C(NCc2ccccc2)S/C1=C\c1ccc(F)c(F)c1 [Compound 4, (Z)-2-(benzylamino)-5-(3,4-difluorobenzylidene)thiazol-4(5H)-one] | > 300 | 289 ± 14.7 | moderate ROS scavenging activities | – |
| COc1cc(/C=C2\SC(NCc3ccccc3)=NC2=O)ccc1O [Compound 5, (Z)-2-(benzylamino)-5-(4-hydroxy-3-methoxybenzylidene)thiazol-4(5H)-one] | > 300 | 148.3 ± 1.12 | moderate ROS scavenging activities | – |
| CCOc1cc(/C=C2\SC(NCc3ccccc3)=NC2=O)ccc1O [Compound 6, (Z)-2-(benzylamino)-5-(3-ethoxy-4-hydroxybenzylidene)thiazol-4(5H)-one] | 248 ± 11.5 | 199 ± 8.57 | – | – |
| COc1ccc(/C=C2\SC(NCc3ccccc3)=NC2=O)c(OC)c1 [Compound 10, (Z)-2-(benzylamino)-5-(2,4-dimethoxybenzylidene)thiazol-4(5H)-one] | 214 ± 6.29 | 293 ± 13.1 | – | mushroom tyrosinase inhibitory activity (in words) ([2]; substrate L-tyrosine): little-to-no mushroom tyrosinase inhibitory activity |
| COc1ccc(/C=C2\SC(NCc3ccccc3)=NC2=O)cc1OC [Compound 11, (Z)-2-(benzylamino)-5-(3,4-dimethoxybenzylidene)thiazol-4(5H)-one] | > 300 | > 300 | – | mushroom tyrosinase inhibitory activity (in words) ([2]; substrate L-tyrosine): little-to-no mushroom tyrosinase inhibitory activity |
| COc1cc(/C=C2\SC(NCc3ccccc3)=NC2=O)cc(OC)c1O [Compound 12, (Z)-2-(benzylamino)-5-(4-hydroxy-3,5-dimethoxybenzylidene)thiazol-4(5H)-one] | > 300 | 166 ± 8.04 | – | DPPH radical scavenging activity, % inhibition [4]: 62% |
| CC(C)(C)c1cc(/C=C2\SC(NCc3ccccc3)=NC2=O)cc(C(C)(C)C)c1O [Compound 13, (Z)-2-(benzylamino)-5-(3,5-di-tert-butyl-4-hydroxybenzylidene)thiazol-4(5H)-one] | > 300 | 137 ± 10.7 | – | – |
| COc1cc(/C=C2\SC(NCc3ccccc3)=NC2=O)cc(OC)c1OC [Compound 14, (Z)-2-(benzylamino)-5-(3,4,5-trimethoxybenzylidene)thiazol-4(5H)-one] | 231 ± 7.43 | 192 ± 9.04 | – | mushroom tyrosinase inhibitory activity (in words) ([2]; substrate L-tyrosine): little-to-no mushroom tyrosinase inhibitory activity |
| O=C1O[C@H]([C@@H](O)CO)C(O)=C1O [L-Ascorbic acid, L-ascorbic acid, reference compound] | – | – | – | DPPH radical scavenging activity, % inhibition [4]: 97% |
| O=c1cc(CO)occ1O [kojic acid, Kojic acid, reference compound] | – | – | – | extracellular melanin levels compared to untreated control [5]: 1.5 fold; intracellular melanin levels compared to untreated control [5]: 1.9 fold |
| CC(C)(S)[C@@H](N)C(=O)O [penicillamine, reference compound] | – | – | – | peroxynitrite scavenging activity (in words) [1]: significantly reduced the peroxynitrite levels increased by SIN-1 treatment |
